Reference: PubChem BioAssay (NCI)
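Each compound was tested at five concentrations against cells in 96-well plates for 48 hours. GI50: concentration for 50% inhibition of growth. TGI: total growth inhibition.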

Columns and labels:
Experiment in all cases: inhibition of tumour cell growth, NCI panel, 48 h
[1] = test system: ACHN renal
[2] = test system: CAKI-1 renal
[3] = test system: CCRF-CEM leukemia
[4] = test system: COLO 205 colon
[5] = test system: DU-145 prostate
[6] = test system: EKVX NSCLC
[7] = test system: HCC-2998 colon
[8] = test system: HCT-116 colon
[9] = test system: HL-60(TB) leukemia
[10] = test system: HOP-62 NSCLC
[11] = test system: HOP-92 NSCLC
[12] = test system: HS 578T breast
[13] = test system: HT29 colon
[14] = test system: K-562 leukemia
[15] = test system: LOX IMVI melanoma
[16] = test system: M14 melanoma
[17] = test system: MALME-3M melanoma
[18] = test system: MCF7 breast
[19] = test system: MDA-MB-231 breast
[20] = test system: MOLT-4 leukemia
[21] = test system: NCI-H226 lung
[22] = test system: NCI-H23 lung
[23] = test system: NCI-H460 lung
[24] = test system: NCI-H522 lung
[25] = test system: NCI/ADR-RES ovarian
[26] = test system: OVCAR-3 ovarian
[27] = test system: OVCAR-4 ovarian
[28] = test system: OVCAR-5 ovarian
[29] = test system: OVCAR-8 ovarian
[30] = test system: RPMI-8226 leukemia
[31] = test system: RXF 393 renal
[32] = test system: SF-268 CNS
[33] = test system: SF-295 CNS
[34] = test system: SF-539 CNS
[35] = test system: SK-MEL-2 melanoma
[36] = test system: SK-MEL-28 melanoma
[37] = test system: SK-OV-3 ovarian
[38] = test system: SNB-19 CNS
[39] = test system: SNB-75 CNS
[40] = test system: SR leukemia
[41] = test system: SW-620 colon
[42] = test system: TK-10 renal
[43] = test system: UACC-62 melanoma
[44] = test system: UO-31 renal
[45] = test system: 786-0 renal
[46] = test system: A498 renal
[47] = test system: A549 NSCLC
[48] = test system: BT-549 breast
[49] = test system: HCT-15 colon
[50] = test system: KM12 colon
[51] = test system: MDA-MB-435
[52] = test system: PC-3 prostate
[53] = test system: SK-MEL-5 melanoma
[54] = test system: SN12C renal
[55] = test system: T-47D breast
[56] = test system: U251 CNS
[57] = test system: UACC-257 melanoma

COc1cnc2c(c1)C(=O)c1c-2n(CCCN2CCOCC2)c(=O)c2cc(Cl)ccc12
GI50 [1]: 0.332 µM | TGI [1]: > 100 µM | GI50 [2]: 0.342 µM | TGI [2]: > 100 µM | GI50 [3]: 0.12 µM | TGI [3]: > 100 µM | GI50 [4]: 0.193 µM | TGI [4]: > 100 µM | GI50 [5]: 0.41 µM | TGI [5]: > 100 µM | GI50 [6]: > 100 µM | TGI [6]: > 100 µM | GI50 [7]: > 100 µM | TGI [7]: > 100 µM | GI50 [8]: 0.167 µM | TGI [8]: > 100 µM | GI50 [9]: 0.455 µM | TGI [9]: > 100 µM | GI50 [10]: 0.274 µM | TGI [10]: 22.4 µM | GI50 [11]: 32.7 µM | TGI [11]: > 100 µM | GI50 [12]: 24.9 µM | TGI [12]: > 100 µM | GI50 [13]: 0.233 µM | TGI [13]: > 100 µM | GI50 [14]: 0.525 µM | TGI [14]: > 100 µM | GI50 [15]: 0.152 µM | TGI [15]: 0.532 µM | GI50 [16]: 0.323 µM | TGI [16]: > 100 µM | GI50 [17]: > 100 µM | TGI [17]: > 100 µM | GI50 [18]: 0.0959 µM | TGI [18]: > 100 µM | GI50 [19]: > 100 µM | TGI [19]: > 100 µM | GI50 [20]: 0.267 µM | TGI [20]: > 100 µM | GI50 [21]: 0.396 µM | TGI [21]: > 100 µM | GI50 [22]: 0.308 µM | TGI [22]: > 100 µM | GI50 [23]: 0.0701 µM | TGI [23]: > 100 µM | GI50 [24]: 0.244 µM | TGI [24]: > 100 µM | GI50 [25]: 0.259 µM | TGI [25]: > 100 µM | GI50 [26]: 0.783 µM | TGI [26]: > 100 µM | GI50 [27]: > 100 µM | TGI [27]: > 100 µM | GI50 [28]: > 100 µM | TGI [28]: > 100 µM | GI50 [29]: 0.578 µM | TGI [29]: > 100 µM | GI50 [30]: 0.426 µM | TGI [30]: > 100 µM | GI50 [31]: 0.332 µM | TGI [31]: 28 µM | GI50 [32]: 0.288 µM | TGI [32]: > 100 µM | GI50 [33]: 0.239 µM | TGI [33]: 0.664 µM | GI50 [34]: 0.23 µM | TGI [34]: 0.65 µM | GI50 [35]: 30.5 µM | TGI [35]: > 100 µM | GI50 [36]: > 100 µM | TGI [36]: > 100 µM | GI50 [37]: 0.397 µM | TGI [37]: > 100 µM | GI50 [38]: 0.31 µM | TGI [38]: > 100 µM | GI50 [39]: 15.1 µM | TGI [39]: 57.1 µM | GI50 [40]: 0.0797 µM | TGI [40]: > 100 µM | GI50 [41]: 0.232 µM | TGI [41]: > 100 µM | GI50 [42]: > 100 µM | TGI [42]: > 100 µM | GI50 [43]: 0.187 µM | TGI [43]: > 100 µM | GI50 [44]: 0.349 µM | TGI [44]: > 100 µM

Cc1cc(N[C@@H]2CCC[C@H](Nc3ccnc4cc(Cl)ccc34)C2)nc(N2CCCCCC2)n1
GI50 [45]: 1.47 µM | TGI [45]: 2.9 µM | GI50 [46]: 1.74 µM | TGI [46]: 3.2 µM | GI50 [47]: 2.19 µM | TGI [47]: 4.94 µM | GI50 [1]: 1.83 µM | TGI [1]: 3.82 µM | GI50 [48]: 1.75 µM | TGI [48]: 3.75 µM | GI50 [3]: 1.59 µM | TGI [3]: 10.7 µM | GI50 [4]: 1.36 µM | TGI [4]: 2.89 µM | GI50 [5]: 2.99 µM | TGI [5]: 10.6 µM | GI50 [6]: 1.62 µM | TGI [6]: 3.84 µM | GI50 [7]: 1.72 µM | TGI [7]: 3.29 µM | GI50 [8]: 1.05 µM | TGI [8]: 2.36 µM | GI50 [49]: 1.1 µM | TGI [49]: 2.62 µM | GI50 [9]: 1.7 µM | TGI [9]: 3.47 µM | GI50 [10]: 1.37 µM | TGI [10]: 3.03 µM | GI50 [11]: 1.62 µM | TGI [11]: 3.36 µM | GI50 [13]: 1.05 µM | TGI [13]: 2.98 µM | GI50 [14]: 0.359 µM | TGI [14]: 1.69 µM | GI50 [50]: 2.06 µM | TGI [50]: 4.48 µM | GI50 [15]: 1.43 µM | TGI [15]: 2.96 µM | GI50 [16]: 1.55 µM | TGI [16]: 3.29 µM | GI50 [17]: 1.83 µM | TGI [17]: 3.42 µM | GI50 [18]: 1.43 µM | TGI [18]: 3.03 µM | GI50 [19]: 1.63 µM | TGI [19]: 3.43 µM | GI50 [51]: 1.79 µM | TGI [51]: 3.33 µM | GI50 [20]: 1.6 µM | TGI [20]: 5.73 µM | GI50 [21]: 2.42 µM | TGI [21]: 6.06 µM | GI50 [22]: 2.03 µM | TGI [22]: 5.43 µM | GI50 [23]: 1.58 µM | TGI [23]: 3.2 µM | GI50 [24]: 1.93 µM | TGI [24]: 4 µM | GI50 [25]: 1.69 µM | TGI [25]: 3.9 µM | GI50 [26]: 1.91 µM | TGI [26]: 4.06 µM | GI50 [27]: 1.72 µM | TGI [27]: 5.04 µM | GI50 [28]: 2.06 µM | TGI [28]: 6.26 µM | GI50 [29]: 2.51 µM | TGI [29]: 6.1 µM | GI50 [52]: 1.81 µM | TGI [52]: 4.05 µM | GI50 [30]: 1.64 µM | TGI [30]: 4.71 µM | GI50 [31]: 1.55 µM | TGI [31]: 3.1 µM | GI50 [32]: 1.54 µM | TGI [32]: 3.39 µM | GI50 [33]: 1.32 µM | TGI [33]: 2.74 µM | GI50 [34]: 1.59 µM | TGI [34]: 3.03 µM | GI50 [35]: 2.07 µM | TGI [35]: 4.52 µM | GI50 [36]: 1.85 µM | TGI [36]: 3.62 µM | GI50 [53]: 1.86 µM | TGI [53]: 3.27 µM | GI50 [37]: 1.86 µM | TGI [37]: 3.73 µM | GI50 [54]: 1.55 µM | TGI [54]: 3.11 µM | GI50 [38]: 2.56 µM | TGI [38]: 8.08 µM | GI50 [39]: 1.43 µM | TGI [39]: 3.14 µM | GI50 [40]: 0.228 µM | TGI [40]: 0.847 µM | GI50 [41]: 1.52 µM | TGI [41]: 3.28 µM | GI50 [55]: 2.22 µM | TGI [55]: 5.38 µM | GI50 [42]: 1.73 µM | TGI [42]: 3.52 µM | GI50 [56]: 1.73 µM | TGI [56]: 3.41 µM | GI50 [57]: 2.35 µM | TGI [57]: 4.19 µM | GI50 [43]: 1.81 µM | TGI [43]: 3.34 µM | GI50 [44]: 1.13 µM | TGI [44]: 2.4 µM
